Entries after “also recorded” stand apart in the source; their conditions may differ. Read-outs that look alike come from different tables or passages of the source.
How the values were obtained:
[1] = target: dopamine transporter (DAT) (Rattus norvegicus, UniProt P23977); assay: Dopamine reuptake ([^3H]dopamine uptake) inhibition in rat brain synaptosomes; conditions: for efficacy of [^3H]DA (DAT) uptake inhibition, in words: partial versus full inhibition
[2] = DA Uptake EC50 (nM ± SD), rat caudate synaptosomes, 5 nM [^3H]dopamine, 15 min, 25° C., three experiments pooled
[3] = read-out: DA Uptake Emax (% I ± SD)
[4] = One-Site IC50 (nM), [^3H]DA uptake dose-response curve fit to one-component equation
[5] = Two-Site IC50-1 (nM), [^3H]DA uptake dose-response curve fit to two-component equation, component 1
[6] = Two-Site IC50-2 (nM), [^3H]DA uptake dose-response curve fit to two-component equation, component 2
[7] = read-out: Two-Site Emax-1 (% I)
[8] = read-out: Two-Site Emax-2 (% I)

Chain of dopamine transporter (DAT) (P23977 whole entry): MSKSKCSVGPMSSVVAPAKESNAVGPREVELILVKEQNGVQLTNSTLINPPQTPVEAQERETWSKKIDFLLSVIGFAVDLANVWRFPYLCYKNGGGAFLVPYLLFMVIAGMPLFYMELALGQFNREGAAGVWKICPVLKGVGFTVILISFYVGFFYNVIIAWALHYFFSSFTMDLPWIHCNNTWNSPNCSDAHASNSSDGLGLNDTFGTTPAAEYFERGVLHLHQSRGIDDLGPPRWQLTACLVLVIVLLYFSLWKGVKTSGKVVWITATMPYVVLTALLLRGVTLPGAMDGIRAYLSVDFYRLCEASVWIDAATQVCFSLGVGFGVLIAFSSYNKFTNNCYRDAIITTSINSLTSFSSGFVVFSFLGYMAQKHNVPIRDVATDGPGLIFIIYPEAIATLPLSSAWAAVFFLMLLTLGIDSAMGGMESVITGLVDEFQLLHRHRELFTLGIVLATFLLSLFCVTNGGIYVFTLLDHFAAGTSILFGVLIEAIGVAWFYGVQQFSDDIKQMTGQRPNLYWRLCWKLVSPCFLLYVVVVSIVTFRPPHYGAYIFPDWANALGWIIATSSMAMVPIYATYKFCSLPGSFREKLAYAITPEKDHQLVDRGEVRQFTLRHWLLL

Row | IC50 [1, 2] [nM] | Emax [1, 3] [%] | SMILES | further results
1 | 14 ± 5 | 77 ± 4 | Cc1cc2nccn2cc1-c1nc(NCC(c2ccccc2)N(C)C)c2ccccc2n1 (centres unmarked) [compound 196, N1,N1-Dimethyl-N2-(2-(7-Methylimidazo[1,2-A]Pyridin-6-yl)Quinazolin-4-yl)-1-Phenylethane-1,2-Diamine] | –
2 | 34 ± 6 | 74 ± 2 | Cc1c(-c2nc(NCC(c3ccccc3)c3ccccc3)c3ccccc3n2)ccc2nccn12 [compound 195, N N-(2,2-Diphenylethyl)-2-(5-Methylimidazo[1,2-A]Pyridin-6-yl)Quinazolin-4-Amine] | –
3 | 89 ± 27 | 81 ± 4 | c1ccc(C(CNc2nc(-c3cnc4nccn4c3)nc3ccccc23)N2CCCCC2)cc1 (centres unmarked) [compound 120, 2-(Imidazo[1,2-A]Pyrimidin-6-yl)-N-(2-Phenyl-2-(Piperidin-1-yl)Ethyl)Quinazolin-4-Amine] | –
4 | – | – | c1ccc(C(CNc2nc(-c3ccc4nccn4c3)nc3ccccc23)N2CCOCC2)cc1 (centres unmarked) [compound 122, 2-(Imidazo[1,2-A]Pyridin-6-yl)-N-(2-Morpholino-2-Phenylethyl)Quinazolin-4-Amine] | melting point: > 250 °C
5 | – | – | c1ccc(C(Nc2nc(-c3cc4ccccc4s3)nc3ccccc23)c2ccccc2)cc1 [compound 8, N-Benzhydryl-2-(benzo[b]thiophen-2-yl)quinazolin-4-amine] | melting point: 180 to 182 °C
6 | 299 ± 45 | 70 ± 2 | c1ccc2c(NCC(c3ccncc3)c3ccncc3)nc(-c3cnc4nccn4c3)nc2c1 [compound 176, N-(2,2-Di(Pyridin-4-yl)Ethyl)-2-(Imidazo[1,2-A]Pyrimidin-6-yl)Quinazolin-4-Amine] | –
7 | 165 ± 15 | 69 ± 1 | COCc1c[nH]c2ccc(-c3nc(NCC(c4ccccc4)c4ccccc4)c4ccccc4n3)cc12 [compound 116, N-(2,2-Diphenylethyl)-2-(3-(Methoxymethyl)-1H-Indol-5-yl)Quinazolin-4-Amine] | –
8 | – | – | Nc1ncc(-c2nc(NCC(c3ccccc3)c3ncccn3)c3ccccc3n2)cn1 (centres unmarked) [compound 104, 2-(2-Aminopyrimidin-5-yl)-N-(2Phenyl-2-(Pyrimidin-2-yl)Ethyl)Quinazolin-4-Amine] | melting point: 211 °C
9 | – | – | CN(C)Cc1cnc2ccc(-c3nc(NCC(c4ccccc4)c4ccccc4)c4ccccc4n3)cn12 [compound 112, 2-(3-((Dimethylamino)methyl)Imidazo[1,2-A]pyridin-6-yl)-N-(2,2-Diphenylethyl)Quinazolin-4-Amine] | melting point: 240 °C
10 | 416 ± 22 | 83 ± 1 | c1ccc(C(CCNc2nc(-c3ccsc3)nc3ccccc23)c2ccccc2)cc1 [compound 5, N-(3,3-Diphenylpropyl)-2-(thiophen-3-yl)quinazolin-4-amine] | –
11 | 480 | 100 | c1ccc(C(CNc2nc(-c3cccnc3)nc3ccccc23)c2ccccc2)cc1 [compound 2, N-(2,2-Diphenylethyl)-2-(pyridin-3-yl)quinazolin-4-amine] | –
12 | – | – | O=S(=O)(c1ccccc1)n1ccc2cc(-c3nc(NCC(c4ccccc4)c4ccccc4)c4ccccc4n3)ccc21 [compound 36, N-(2,2-Diphenylethyl)-2-(1-(Phenylsulfonyl)-1H-Indol-5-yl)Quinazolin-4-Amine] | melting point: 203 °C
13 | 443 ± 88 | 82 ± 3 | c1ccc(C(CCNc2nc(-c3cccnc3)nc3ccccc23)c2ccccc2)cc1 [compound 1, N-(3,3-Diphenylpropyl)-2-(pyridin-3-yl)quinazolin-4-amine] | –
14 | – | 75 ± 3 | c1ccc(C(CNc2nc(-c3ccc4c(c3)CCN4)nc3ccccc23)c2ccccc2)cc1 [compound 84, N-(2,2-Diphenylethyl)-2-(Indolin-5-yl)Quinazolin-4-Amine] | IC50 [1, 4]: 18 ± 4 nM; IC50 [1, 5]: 1.8e+06 nM; IC50 [1, 6]: 1.8e+06 nM; efficacy of [^3H]DA (DAT) uptake inhibition, in words [1]: partially inhibit; also recorded: partial inhibitors; Emax ([1]; read-out: One-Site Emax (% I)): 75 ± 3%; Emax [1, 7]: 37%; Emax [1, 8]: 37%
15 | 1.6 ± 0.3 | 74 ± 2 | Cc1cc2nccn2cc1-c1nc(NCC(c2ccccc2)C2CCCC2)c2ccccc2n1 (centres unmarked) [compound 194, N-(2-Cyclopentyl-2-Phenylethyl)-2-(7-Methylimidazo[1,2-A]pyridin-6-yl)Quinazolin-4-Amine] | –
16 | 2.3 ± 0.3 | 74 ± 2 | FC(F)(F)c1cc2nccn2cc1-c1nc(NCC(c2ccccc2)c2ccccc2)c2ccccc2n1 [compound 200, N-(2,2-Diphenylethyl)-2-(7-(Trifluoromethyl)Imidazo[1,2-a]Pyridin-6-yl)Quinazolin-4-Amine] | –
17 | 92 ± 21 | 92 ± 4 | c1ccc(C(CNc2nc(-c3cccn4ccnc34)nc3ccccc23)c2ccccc2)cc1 [compound 147, N-(2,2-Diphenylethyl)-2-(Imidazo[1,2-A]pyridin-8-yl)Quinazolin-4-Amine] | –
18 | 150 | 100 | c1ccc(C(Nc2nc(N3CCCCC3)nc3ccccc23)c2ccccc2)cc1 [compound 3, N-Benzhydryl-2-(piperidin-1-yl)quinazolin-4-amine] | –

Row | IC50 [1, 2] [nM] | Emax [1, 3] [%] | SMILES | further results
19 | – | – | c1ccc(C(CCNc2nc(-c3cc4ccccc4s3)nc3ccccc23)c2ccccc2)cc1 [compound 19, N-(3,3-Diphenylpropyl)-2-(Benzo [B]Thiophen-2-yl)Quinazolin-4-Amine] | melting point: 201 to 203 °C
20 | 9.1 ± 2.1 | 73 ± 3 | c1ccc(C(CNc2nc(-c3cnc4ccnn4c3)nc3ccccc23)c2ccccc2)cc1 [compound 199, N-(2,2-Diphenylethyl)-2-(Pyrazolo[1,5-a]Pyrimidin-6-yl)Quinazolin-4-Amine] | –
21 | 229 ± 54 | 47 ± 2 | c1ccc(C(CNc2nc(-c3ccc4nnnn4c3)nc3ccccc23)c2ccccc2)cc1 [compound 108, N-(2,2-Diphenylethyl)-2-(Tetrazolo[1,5-A]Pyridin-6-yl)Quinazolin-4-Amine] | –
22 | – | – | CN(C)c1ccc(-c2nc(NCC(c3ccccc3)N3CCOCC3)c3ccccc3n2)cc1 (centres unmarked) [SRI-30835] | IC50 [1, 4]: 15 ± 7 nM; IC50 [1, 5]: 6 ± 0.9 nM; IC50 [1, 6]: 4000 ± 1330 nM; efficacy of [^3H]DA (DAT) uptake inhibition, in words [1]: partially inhibit; Emax ([1]; read-out: One-Site Emax (% I)): 75 ± 5%; Emax [1, 7]: 57 ± 2%; Emax [1, 8]: 42 ± 4%
23 | 553 ± 82 | 73 ± 2 | c1ccc(C(CNc2nc(-c3ccc4nccn4c3)nc3ccccc23)c2ncccn2)cc1 (centres unmarked) [compound 103, 2-(Imidazo[1,2-A]Pyridin-6-yl)-N-(2-Phenyl-2-(Pyrimidin-2-yl)Ethyl)Quinazolin-4-Amine] | –
24 | 132 ± 43 | 69 ± 4 | c1ccc(C(CNc2nc(-c3ccc4c(c3)NCCC4)nc3ccccc23)c2ccccc2)cc1 [compound 83, N-(2,2-Diphenylethyl)-2-(1,2,3,4-Tetrahydroquinolin-7-yl)Quinazolin-4-Amine] | –
25 | 49 ± 9 | 71 ± 2 | CN1CCN(C(CNc2nc(-c3cnc4nccn4c3)nc3ccccc23)c2ccccc2)CC1 (centres unmarked) [compound 129, 2-(Imidazo[1,2-A]Pyrimidin-6-yl)-N-(2-(4Methylpiperazin-1-yl)-2-Phenylethyl)Quinazolin-4-Amine] | –
26 | 11 ± 2 | 77 ± 2 | c1ccc(C(CNc2nc(-c3ccc4nccn4c3)nc3ccccc23)c2ccncc2)cc1 (centres unmarked) [compound 106, 2-(Imidazo[1,2-A]Pyridin-6-yl)-N-(2-Phenyl-2-(Pyridin-4-yl)Ethyl)Quinazolin-4-Amine] | –
27 | 31 ± 7 | 72 ± 3 | c1ccc(C(CNc2nc(-c3cnc4nccn4c3)nc3ccccc23)c2cccnc2)cc1 (centres unmarked) [compound 134, 2-(Imidazo[1,2-A]Pyrimidin-6-yl)-N-(2-Phenyl-2-(Pyridin-3-yl)Ethyl)Quinazolin-4-Amine] | –
28 | 60 | 100 | c1ccc(C(CNc2nc(N3CCCCC3)nc3ccccc23)c2ccccc2)cc1 [compound 4, N-(2,2-Diphenylethyl)-2-(piperidin-1-yl)quinazolin-4-amine] | –
29 | 239 ± 84 | 93 ± 7 | c1ccc(C(CNc2nc(-c3c[nH]c4ccccc34)nc3ccccc23)c2ccccc2)cc1 [compound 82, N-(2,2-Diphenylethyl)-2-(1H-Indol-3-yl)Quinazolin-4-Amine] | –
30 | – | – | CN(C)c1ccc(-c2nc(NCCc3ccccc3)c3ccccc3n2)cc1 [SRI-31335] | IC50 [1, 4]: 156 ± 12 nM; IC50 [1, 5]: 99 ± 63 nM; IC50 [1, 6]: 564 ± 1180 nM; efficacy of [^3H]DA (DAT) uptake inhibition, in words [1]: fully inhibits; also recorded: full-efficacy [^3H]DA uptake inhibitors; Emax ([1]; read-out: One-Site Emax (% I)): 100 ± 1.5%; Emax [1, 7]: 76 ± 54%; Emax [1, 8]: 27 ± 53%
31 | 208 ± 34 | 92 ± 3 | Cc1ccc(-c2nc(NCC(c3ccccc3)c3ccccc3)c3ccccc3n2)c2nccn12 [compound 197, N-(2,2-Diphenylethyl)-2-(5-Methylimidazo[1,2-A]pyridin-8-yl)Quinazolin-4-Amine] | –
32 | 55 ± 10 | 69 ± 2 | c1ccc(C(CNc2nc(-c3cnc4nccn4c3)nc3ccccc23)N2CCOCC2)cc1 (centres unmarked) [compound 128, 2-(Imidazo[1,2-A]Pyrimidin-6-yl)-N-(2-Morpholino-2-Phenylethyl)Quinazolin-4-Amine] | –
33 | 83 ± 27 | 58 ± 3 | c1ccc(C(CNc2nc(-c3ccc4nccn4c3)nc3ccccc23)n2ccnc2)cc1 (centres unmarked) [compound 115, N-(2-(1H-Imidazol-1-yl)-2-Phenylethyl)-2-(Imidazo[1,2-A]Pyridin-6-yl)Quinazolin-4-Amine] | –
34 | 385 ± 89 | 72 ± 4 | Nc1ncc(-c2nc(NCC(c3ccccc3)c3ccccn3)c3ccccc3n2)cn1 (centres unmarked) [compound 95, 2-(2-Aminopyrimidin-5-yl)-N-(2-Phenyl-2-(Pyridin-2-yl)Ethyl)Quinazolin-4-Amine] | –
35 | 1.7 ± 0.2 | 72 ± 1 | Cc1cc2nccn2cc1-c1nc(NCC(c2ccc(F)cc2)c2ccc(F)cc2)c2ccccc2n1 [compound 203, N-(2,2-Bis(4-Fluorophenyl)Ethyl)-2-(7-Methylimidazo[1,2-a]Pyridin-6-yl)Quinazolin-4-Amine] | –

— patent US9873702B2, “Heterocyclic compounds as biogenic amine transport modulators” (Southern Research Institute, priority 2014, dated 2018)
